Laboratory results from patent US20260166162A1, “CARBON CHAIN SUBSTANCE FOR REGULATING TRANSMEMBRANE TRANSPORT AND FLUIDITY OF CELL MEMBRANES, AND PREPARATION AND USE THEREOF” (priority 2022, published 2026).
pIC50: −log10 of the molar value. Read-outs that look alike come from different tables or passages of the source.

How the values were obtained:
TNF-α [1] = assay: LPS inflammatory aging in C57BL/6 mice, serum TNF-α (Example II-55, Table II-37); type: in vivo, mouse; details: 1 mM, 200 μl/time once a day for 30 days, LPS C57BL/6 mice
IL-1β [2] = assay: LPS inflammatory aging in C57BL/6 mice, serum IL-1β (Example II-55, Table II-35); type: in vivo, mouse; details: 1 mM, 200 μl/time, once a day, 30 days
IL-6 [3] = assay: LPS inflammatory aging in C57BL/6 mice, serum IL-6 (Example II-55, Table II-36); type: in vivo, mouse; details: 1 mM, 200 μl/time once a day for 30 days; serum, LPS C57BL/6 mice
Klebsiella pneumoniae = assay: Bacteriostasis/sterilization test (plate count); type: cell-based; details: for Inhibition rate (%): 0.035 mM (Table 25)
Staphylococcus aureus = assay: Bacteriostasis/sterilization test (plate count); type: cell-based; details: for Inhibition rate (%): 0.035 mM (Table 25)
Escherichia coli = assay: Bacteriostasis/sterilization test (plate count); type: cell-based; details: for Inhibition rate (%): 0.035 mM (Table 25)
Pseudomonas aeruginosa = assay: Bacteriostasis/sterilization test (plate count); type: cell-based; details: for Inhibition rate (%): 0.035 mM (Table 25)
[4] = system: Methicillin-resistant Staphylococcus aureus; assay: Bacteriostasis/sterilization test (plate count); type: cell-based; details: for Inhibition rate (%): 0.035 mM (Table 25)
Streptococcus pneumoniae = assay: Bacteriostasis/sterilization test (plate count); type: cell-based; details: for Inhibition rate (%): 0.035 mM (Table 25)
IL-6 [5] = assay: Skin photoaging (UVB) in BALB/c nude mice, serum IL-6 (Example II-54, Table II-34); type: in vivo, mouse; details: serum, UVB-irradiated BALB/c nude mice, 40 days
TNF-α [6] = assay: Skin photoaging (UVB) in BALB/c nude mice, serum TNF-α (Example II-54, Table II-32); type: in vivo, mouse; details: UVB-irradiated BALB/c nude mice, 40 days
IL-1β [7] = assay: Skin photoaging (UVB) in BALB/c nude mice, serum IL-1β (Example II-54, Table II-33); type: in vivo, mouse; details: serum, UVB-irradiated BALB/c nude mice, 40 days
HIV pseudovirus = type: cell-based, HIV pseudovirus HIV18A-41
SARS-CoV-2 pseudovirus = type: cell-based, SARS-CoV-2 pseudovirus B.1.526.2
H7N9 pseudovirus = type: cell-based, Influenza pseudovirus H7N9-Fluc
H5N1 pseudovirus = type: cell-based, Influenza pseudovirus H5N1-Fluc
293T cells = assay: Cellular phagocytosis of DiD-loaded lipid vesicles (nano-drugs) by 293T cells (Example II-51, Table II-29); type: cell-based; details: 293T cells pretreated 4 h, DiD lipid vesicles 2 h, n=3, untreated control 226.46 ± 1.26
[8] = system: SARS-CoV-2 pseudovirus (B.1.526.2); type: cell-based; details: n=3
[9] = read-out: half inhibition concentration

In the case of `CCC=CCC=CCC=CCCCCCCCC(=O)OC(C)C(N)C(=O)O` (stereo not shown) [Thr-linolenic acid], the TNF-α (TNF-α [1]) was 52 pg/mL, the “IL-1β” value (IL-1β [2]) was 41 pg/mL and the IL-6 (IL-6 [3]) was 57 pg/mL.
`CCCCCCCC(=O)OCC1OC(O)C(O)C(O)C1O` (stereo not shown) was tested, and the “Sterilization rate (%)” value (Klebsiella pneumoniae; 9 mM, 2 h) was >99%, the pIC50 (Staphylococcus aureus; 2 h, read-out: half maximal inhibition concentration) was 2.35 and the inhibition rate (Staphylococcus aureus; concentration 72 mM-9 mM, 2 h) was “greater than 99%”. The “Sterilization rate (%)” value (Escherichia coli; 9 mM, 2 h) was >99%, the “Sterilization rate (%)” value (Pseudomonas aeruginosa; 9 mM, 2 h) was >99% and the “Sterilization rate (%)” value ([4]; 9 mM, 2 h, listed as printed as Methicillin-resistant Streptococcus pneumoniae) was >99%. For the same molecule, the “Sterilization rate (%)” value (Streptococcus pneumoniae; 9 mM, 2 h) was >99%.
Molecule `CCCCCC=CCC=CCCCCCCCC(=O)OCC(N)C(=O)O` (stereo not shown) [Ser-linoleic acid] has an IL-6 (IL-6 [5]; 30 μM smeared) of 28 pg/mL, an IL-6 (IL-6 [5]; 50 μM smeared) of 27 pg/mL and an IL-6 (IL-6 [5]; 100 μM smeared) of 29 pg/mL. The TNF-α (TNF-α [1]) was 49 pg/mL, the TNF-α (TNF-α [6]; 30 μM smeared) was 48 pg/mL and the TNF-α (TNF-α [6]; 50 μM smeared) was 51 pg/mL. For the same molecule, the TNF-α (TNF-α [6]; 100 μM smeared) was 45 pg/mL, the IL-1β (IL-1β [7]; 30 μM smeared) was 53 pg/mL and the IL-1β (IL-1β [7]; 50 μM smeared) was 54 pg/mL. The IL-1β (IL-1β [7]; 100 μM smeared) was 55 pg/mL, the “IL-1β” value (IL-1β [2]) was 43 pg/mL and the IL-6 (IL-6 [3]) was 39 pg/mL.
In the case of `CCCCCCCC(=O)OCC(N)C(=O)O` (stereo not shown), the “Sterilization rate (%)” value (HIV pseudovirus) was 99%, the “Inhibition rate (%)” value (Klebsiella pneumoniae) was 99% and the “Inhibition rate (%)” value (Staphylococcus aureus) was 99%. The inhibition rate (Staphylococcus aureus; concentration 0.035 mM) was “greater than 99%”, the pIC50 (Staphylococcus aureus; [9]) was 5.05 and the “Sterilization rate (%)” value (SARS-CoV-2 pseudovirus) was 99%. The “Inhibition rate (%)” value (Escherichia coli) was 99%, the “Sterilization rate (%)” value (H7N9 pseudovirus) was 99% and the “Sterilization rate (%)” value (H5N1 pseudovirus) was 99%. For the same molecule, the “Inhibition rate (%)” value (Pseudomonas aeruginosa) was 99%, the Fluorescence intensity (293T cells; 2 nM) was 157.30 ± 0.13 and the Fluorescence intensity (293T cells; 5 nM) was 108.56 ± 0.13. It also gave a Fluorescence intensity (293T cells; 10 nM) of 104.53 ± 0.13, a Fluorescence intensity (293T cells; 50 nM) of 98.90 ± 0.13 and a Fluorescence intensity (293T cells; 100 nM) of 83.29 ± 5.66. It also gave a Fluorescence intensity (293T cells; 1 uM) of 447.01 ± 12.33, a Fluorescence intensity (293T cells; 10 uM) of 326.69 ± 4.66 and a Fluorescence intensity (293T cells; 50 uM) of 64.86 ± 5.13. For the same molecule, the Fluorescence intensity (293T cells; 100 uM) was 59.90 ± 4.13, the “Inhibition rate (%)” value ([8]; 2 nM) was 30.54 ± 0.54% and the “Inhibition rate (%)” value ([8]; 5 nM) was 52.06 ± 5.23%. The “Inhibition rate (%)” value ([8]; 10 nM) was 53.84 ± 1.57%, the “Inhibition rate (%)” value ([8]; 50 nM) was 56.33 ± 1.56% and the “Inhibition rate (%)” value ([8]; 100 nM) was 63.22 ± 2.55%. For the same molecule, the “Inhibition rate (%)” value ([8]; 1 μM) was -97.39 ± 7.23%, the “Inhibition rate (%)” value ([8]; 10 μM) was -44.26 ± 0.03% and the “Inhibition rate (%)” value ([8]; 50 μM) was 71.36 ± 0.28%. For the same molecule, the “Inhibition rate (%)” value ([8]; 100 μM) was 73.55 ± 0.44%, the “Inhibition rate (%)” value [4] was 99% and the “Inhibition rate (%)” value (Streptococcus pneumoniae) was 99%.
Molecule `CCCCCCC(O)CC=CCCCCCCCC(=O)NCCCCC(N)C(=O)O` (stereo not shown) [Lys-ricinoleic acid] has an IL-6 (IL-6 [5]; 30 μM smeared) of 34 pg/mL, an IL-6 (IL-6 [5]; 50 μM smeared) of 38 pg/mL and an IL-6 (IL-6 [5]; 100 μM smeared) of 33 pg/mL. It also gave a TNF-α (TNF-α [1]) of 43 pg/mL, a TNF-α (TNF-α [6]; 30 μM smeared) of 60 pg/mL and a TNF-α (TNF-α [6]; 50 μM smeared) of 55 pg/mL. For the same molecule, the TNF-α (TNF-α [6]; 100 μM smeared) was 57 pg/mL, the IL-1β (IL-1β [7]; 30 μM smeared) was 70 pg/mL and the IL-1β (IL-1β [7]; 50 μM smeared) was 65 pg/mL. The IL-1β (IL-1β [7]; 100 μM smeared) was 63 pg/mL, the “IL-1β” value (IL-1β [2]) was 51 pg/mL and the IL-6 (IL-6 [3]) was 60 pg/mL.
In the case of `CCCCCCCC/C=C\CCCCCCCC(=O)OC(C)C(N)C(=O)O` (stereo not shown), the “Sterilization rate (%)” value (HIV pseudovirus) was 99%, the “Inhibition rate (%)” value (Klebsiella pneumoniae) was 99% and the “Inhibition rate (%)” value (Staphylococcus aureus) was 99%. The inhibition rate (Staphylococcus aureus; concentration 0.035 mM) was “greater than 99%”, the pIC50 (Staphylococcus aureus; [9]) was 5.05 and the “Sterilization rate (%)” value (SARS-CoV-2 pseudovirus) was 99%. The “Inhibition rate (%)” value (Escherichia coli) was 99%, the “Sterilization rate (%)” value (H7N9 pseudovirus) was 99% and the “Sterilization rate (%)” value (H5N1 pseudovirus) was 99%. For the same molecule, the “Inhibition rate (%)” value (Pseudomonas aeruginosa) was 99%, the “Inhibition rate (%)” value [4] was 99% and the “Inhibition rate (%)” value (Streptococcus pneumoniae) was 99%.
